Reference: PubChem BioAssay AID1919014 (Molecular Pharmacology Branch, DTP, NCI, 2023)

Test system: NCI-H1341 complex spheroids, percent test/control
Test: Anticancer human tumor NCI-H1341 cell line growth inhibition [AhR];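 also: spheroids exposed to agents for seven days before readout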
Settings: for IC50: curve of first compound; for viability, T/C: stronger effect = lower value
Summary of the method: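 Complex tumor spheroids co-cultured with HUVEC and human MSC stroma; AhR antagonists tested in combination with standard-of-care and investigational agents. Top concentration at or near clinical Cmax (else 10 microM), half-log dilutions; growth expressed as percent test/control.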

CCc1c2c(nc3ccc(O)cc13)-c1cc3c(c(=O)n1C2)COC(=O)[C@]3(O)CC + Cc1cncc(-c2nc(NCCc3c[nH]c4ccccc34)c3ncn(C(C)C)c3n2)c1
IC50 (second compound 0.1 µM): 7.13 nM
IC50 (second compound 0.316 µM): 3.57 nM
IC50 (second compound 1 µM): < 0.949 nM
IC50 (second compound 3.16 µM): < 0.949 nM
IC50 (second compound 10 µM): < 0.949 nM
viability, T/C (second compound 0.1 µM, first compound 0.000949 µM): 69.6%
viability, T/C (second compound 0.1 µM, first compound 0.003 µM): 65.8%
viability, T/C (second compound 0.1 µM, first compound 0.00949 µM): 41.9%
viability, T/C (second compound 0.1 µM, first compound 0.03 µM): 31.9%
viability, T/C (second compound 0.1 µM, first compound 0.0949 µM): 25.2%
viability, T/C (second compound 0.1 µM, first compound 0.3 µM): 11.9%
viability, T/C (second compound 0.316 µM, first compound 0.000949 µM): 63.2%
viability, T/C (second compound 0.316 µM, first compound 0.003 µM): 55.8%
viability, T/C (second compound 0.316 µM, first compound 0.00949 µM): 33.8%
viability, T/C (second compound 0.316 µM, first compound 0.03 µM): 31.8%
viability, T/C (second compound 0.316 µM, first compound 0.0949 µM): 22.9%
viability, T/C (second compound 0.316 µM, first compound 0.3 µM): 10%
viability, T/C (second compound 1 µM, first compound 0.000949 µM): 46.1%
viability, T/C (second compound 1 µM, first compound 0.003 µM): 45.6%
viability, T/C (second compound 1 µM, first compound 0.00949 µM): 36.4%
viability, T/C (second compound 1 µM, first compound 0.03 µM): 31.7%
viability, T/C (second compound 1 µM, first compound 0.0949 µM): 20.4%
viability, T/C (second compound 1 µM, first compound 0.3 µM): 8.02%
viability, T/C (second compound 3.16 µM, first compound 0.000949 µM): 46%
viability, T/C (second compound 3.16 µM, first compound 0.003 µM): 38.2%
viability, T/C (second compound 3.16 µM, first compound 0.00949 µM): 34.6%
viability, T/C (second compound 3.16 µM, first compound 0.03 µM): 26.3%
viability, T/C (second compound 3.16 µM, first compound 0.0949 µM): 15.2%
viability, T/C (second compound 3.16 µM, first compound 0.3 µM): 5.83%
viability, T/C (second compound 10 µM, first compound 0.000949 µM): 15.2%
viability, T/C (second compound 10 µM, first compound 0.003 µM): 13%
viability, T/C (second compound 10 µM, first compound 0.00949 µM): 14.9%
viability, T/C (second compound 10 µM, first compound 0.03 µM): 8.23%
viability, T/C (second compound 10 µM, first compound 0.0949 µM): 4.28%
viability, T/C (second compound 10 µM, first compound 0.3 µM): 1.78%

Nc1ccccc1NC(=O)c1ccc(CNC(=O)OCc2cccnc2)cc1 + Cc1cncc(-c2nc(NCCc3c[nH]c4ccccc34)c3ncn(C(C)C)c3n2)c1
IC50 (second compound 0.1 µM): 403 nM
IC50 (second compound 0.316 µM): 382 nM
IC50 (second compound 1 µM): 369 nM
IC50 (second compound 3.16 µM): 127 nM
IC50 (second compound 10 µM): < 31.6 nM
viability, T/C (second compound 0.1 µM, first compound 0.0316 µM): 66.1%
viability, T/C (second compound 0.1 µM, first compound 0.1 µM): 76.2%
viability, T/C (second compound 0.1 µM, first compound 0.316 µM): 52.2%
viability, T/C (second compound 0.1 µM, first compound 1 µM): 29.1%
viability, T/C (second compound 0.1 µM, first compound 3.16 µM): 5.05%
viability, T/C (second compound 0.1 µM, first compound 10 µM): 0.51%
viability, T/C (second compound 0.316 µM, first compound 0.0316 µM): 73.4%
viability, T/C (second compound 0.316 µM, first compound 0.1 µM): 65.8%
viability, T/C (second compound 0.316 µM, first compound 0.316 µM): 55.7%
viability, T/C (second compound 0.316 µM, first compound 1 µM): 26.1%
viability, T/C (second compound 0.316 µM, first compound 3.16 µM): 5.82%
viability, T/C (second compound 0.316 µM, first compound 10 µM): 0.6%
viability, T/C (second compound 1 µM, first compound 0.0316 µM): 68.6%
viability, T/C (second compound 1 µM, first compound 0.1 µM): 84.9%
viability, T/C (second compound 1 µM, first compound 0.316 µM): 51.3%
viability, T/C (second compound 1 µM, first compound 1 µM): 19.8%
viability, T/C (second compound 1 µM, first compound 3.16 µM): 5.68%
viability, T/C (second compound 1 µM, first compound 10 µM): 0.56%
viability, T/C (second compound 3.16 µM, first compound 0.0316 µM): 55.3%
viability, T/C (second compound 3.16 µM, first compound 0.1 µM): 52.2%
viability, T/C (second compound 3.16 µM, first compound 0.316 µM): 42.3%
viability, T/C (second compound 3.16 µM, first compound 1 µM): 21.7%
viability, T/C (second compound 3.16 µM, first compound 3.16 µM): 8.4%
viability, T/C (second compound 3.16 µM, first compound 10 µM): 0.87%
viability, T/C (second compound 10 µM, first compound 0.0316 µM): 21.9%
viability, T/C (second compound 10 µM, first compound 0.1 µM): 22.6%
viability, T/C (second compound 10 µM, first compound 0.316 µM): 15.2%
viability, T/C (second compound 10 µM, first compound 1 µM): 9.63%
viability, T/C (second compound 10 µM, first compound 3.16 µM): 1.83%
viability, T/C (second compound 10 µM, first compound 10 µM): 0.47%
